Assay: Human HepG2 cell viability assay in 384 well format
Type: toxicity, cell-based
Set-up: dose 125 nL, time 70.5 hour; concentration not given beside the values
Settings: HepG2 cells, read-out: Inhibition

| Compound | cytotoxicity at 70.5 h [%] |
| --- | --- |
| Cc1nccc([C@H]2C[C@@H]3CCN(S(=O)(=O)C4CC4)C[C@H]3O2)n1 | 0.462 |
| Cc1[nH]ccc1C(=O)Nc1cccc(CN2CCC(O)CC2)c1 | 1.4 |
| CC(C)Oc1cccc(C(=O)C2CCCN(C(=O)c3ncn[nH]3)C2)c1 (stereo unspecified) | -9.49 |
| O=C(Cc1ccccc1)C1CCCN(Cc2cncn2C2CCCC2)C1 (stereo unspecified) | -7.77 |
| O=C(CCS(=O)(=O)c1ccccc1)NC1CCOC2(CCOCC2)C1 (stereo unspecified) | -8.45 |
| CCn1cc(CN(C)S(=O)(=O)c2cnn(C)c2)cn1 | -6.45 |
| CCC(=O)N1CC[C@@H]2[C@H](CC1)N(Cc1cccc(C)n1)CCS2(=O)=O | 1.51 |
| CCC(Nc1cccc(OC)c1)C(=O)N(CCO)Cc1nccs1 (stereo unspecified) | -3.06 |
| CN(C)C[C@@H]1CN(C(=O)c2cc(-c3ccccc3)n[nH]2)C[C@@H]1CO | 16.6 |
| CCC(CC)NC(=O)c1ccc2nnc(C3CCN(S(C)(=O)=O)C3)n2c1 (stereo unspecified) | 6.79 |
| CCC(C)NC(=O)Nc1cccc(OCCCC#N)c1 (stereo unspecified) | -8.47 |
| COc1ncccc1CNC(=O)CN1CCCCCC1=O | -16.5 |
| CN(C)c1ncnc2c1CCN(CC1CCCC1)CC2 | -13.2 |
| COCCN(C)C(C)c1cccc(S(N)(=O)=O)c1 (stereo unspecified) | 0.815 |
| CC(C)CC(C)NCCCN1CCCN(C)CC1 (stereo unspecified) | 21.1 |
| CNc1snc(C)c1C(=O)N1CCCC(n2nc(C)nc2C)C1 (stereo unspecified) | -10.6 |
| Cc1nc(C(C)N(C)Cc2nc(CCC(C)C)no2)c(C)s1 (stereo unspecified) | 0.293 |
| CCOCCOCc1cccc(CNc2cncc(-n3cccn3)n2)c1 | -2.12 |
| O=c1cccnn1CC1CN(CC2CCCC2)Cc2nccn2C1 (stereo unspecified) | -5.89 |
| CN1CCN(C[C@@H]2CN(C3Cc4ccccc4C3)C[C@@H]2CO)CC1 | 22.1 |
| CNC(=O)C(C)(C)NC(=O)c1cc(OCC2CCC2)cc(C(=O)OC)c1 | -1.19 |

| Compound | cytotoxicity at 70.5 h [%] |
| --- | --- |
| Cc1cc(C(=O)N[C@H]2Cc3ccccc3[C@@H]2N)c(=O)[nH]c1C | 1.3 |
| Fc1cnc(N2CCOCC3(CCCNC3)C2)nc1 (stereo unspecified) | 12.2 |
| Cc1nccn1-c1ccc(NS(=O)(=O)c2cnn(C)c2)cn1 | -4.84 |
| Cc1cc(C)cc(N(C)S(=O)(=O)c2cc(C(=O)O)cs2)c1 | -6.25 |
| Cn1cc(N2Cc3nc(N4CCOCC4)ncc3C2=O)cn1 | -6.6 |
| CC(=O)NCCNC(=O)CN1CCOC(Cn2cc(C)cn2)C1 (stereo unspecified) | -5.91 |
| CC(C)CN1C(=O)c2ccc(C(=O)NCCc3c[nH]cn3)cc2C1=O | -0.52 |
| COc1ccncc1NCc1cscn1 | -0.709 |
| Cc1ccc(CN2CCN(Cc3ccncc3)CC2=O)cc1 | -0.378 |
| Cc1cc(C)n(CC2CCCCN2CC(=O)Nc2nncs2)n1 (stereo unspecified) | -7.4 |
| CCc1nc(CN(C(C)=O)C2CCN(CCc3cccs3)C2)no1 (stereo unspecified) | 13 |
| Cc1cc(CSc2ccccn2)on1 | -3.89 |
| CCN1CCOCC12CCN(C(=O)C1CCCC1)CC2 | -0.25 |
| COc1ccc(CN(C)CC2CCCN2c2cccnn2)cc1F (stereo unspecified) | 44.2 |
| CCc1nc(C(=O)N2CCN(Cc3ccc(Cl)cc3)CC2)c[nH]1 | -2.01 |
| Cc1cccc(N2CC3(CCN(S(=O)(=O)c4cccs4)C3)CC2=O)c1 (stereo unspecified) | -2.22 |
| CC(C)c1n[nH]c(C2CN(C(=O)C3=COCC3)CCO2)n1 (stereo unspecified) | -3.87 |
| Cc1cc(=O)n2nc(Oc3ccc(Cl)c(C)c3)sc2n1 | -6.83 |
| CN(C(=O)COc1ccc(-c2noc(C3CCCO3)n2)cc1)C1CC1 (stereo unspecified) | 0.982 |
| CC(=O)N1CCC2(CC1)CC(NC(=O)N(C)C)c1cc(C)ccc12 (stereo unspecified) | -5.6 |
| COCC(=O)N1CCCC1c1nc(O)cc(C(C)C)n1 (stereo unspecified) | 1.53 |

| Compound | cytotoxicity at 70.5 h [%] |
| --- | --- |
| O=C1[C@H]2CN(c3cnccn3)C[C@H]2CN1CC1CC1 | -12.5 |
| CC(O)CNCc1ccc(OCc2ccc3c(c2)OCCO3)cc1 (stereo unspecified) | 19.4 |
| CC(NC(=O)Nc1ccc(-c2csnn2)cc1)C(=O)NC(C)(C)C (stereo unspecified) | -9.46 |
| CCc1nc(CN(C)C2CCN(CCS(C)(=O)=O)C2)no1 (stereo unspecified) | 2.72 |
| CCCn1cc(C(=O)N2CCCC2(C)c2nc(C)cc(N)n2)cn1 (stereo unspecified) | -1.03 |
| CN(C)CCn1c(=O)oc2ccc(NC(=O)C3CCCO3)cc21 (stereo unspecified) | 1.22 |
| CC(C)C1CN(C(=O)c2cn3ccccc3n2)CCCN1CC1CC1 (stereo unspecified) | -10.1 |
| COCCC(=O)N1CCN(CC2CC2)c2nc(C)ccc2C1 | 9.16 |
| Cc1nn(C)c(C)c1-c1cnc(CC2CCNCC2)cn1 | -4.79 |
| CC(C)(C)Nc1c(C2CCCN(C(=O)C3CC3)C2)nc2ccccn12 (stereo unspecified) | 17 |
| CCCn1cc(Cl)c(C(=O)N2C[C@@H](O)[C@H](NC(C)=O)C2)n1 | -8.89 |
| Cc1ccc(CNC(=O)CN2CCCC(Cn3cncn3)C2)s1 (stereo unspecified) | 22.1 |
| CCc1nc(C2CCCN2C(=O)CCc2nc(C3CC3)no2)no1 (stereo unspecified) | -1.64 |
| CN(CCO)Cc1cc(Cl)ccc1OCC(O)CN1CCCCCC1 (stereo unspecified) | -14.1 |
| CC(C)n1cnnc1CN1CCC2(CCCN(C3CCCCC3)C2=O)C1 (stereo unspecified) | -2.59 |
| CCc1ccc2nc(NCCCN(CCO)CCO)cc(C)c2c1 | -3.69 |
| O=C1[C@H]2CN(Cc3ccccc3)C[C@H]2CN1CCN1CCCC1 | -8.49 |
| Cc1nnc(CN2CCC3(CCC(=O)N([C@H]4CC[C@H](O)CC4)C3)CC2)o1 | -8.57 |
| Cc1ocnc1C(=O)N(C)[C@@H]1CC[C@@H](Oc2ccccc2)[C@@H]1O | -5.13 |
| COC1CCN(S(=O)(=O)N2CCCC2c2ccco2)CC1 (stereo unspecified) | 0.386 |
| Fc1ccc2[nH]c3c(c2c1)CCN1C(c2ccccn2)N2CCC31CC2 (stereo unspecified) | 19 |

| Compound | cytotoxicity at 70.5 h [%] |
| --- | --- |
| CCN1CCN(C(=O)c2cc(F)cc3nc(C)c(C)nc23)CC1 | -12.2 |
| NC(=O)c1cnc(NC2CC2)nc1CCNC(=O)Cc1ccccc1 | -5.85 |
| CNC(=O)CN1CCC(NC(=O)N(C)Cc2cc(C)on2)CC1 | -10.8 |
| COC(=O)N1CCCN(C(=O)NCc2ccc(Cl)s2)CC1 | 10.1 |
| Cc1noc(C)c1CCCNC(=O)C1CCN(C(C)C)CC1 | -7.17 |
| Cn1cc(CN2CCC3(CC2)CCN(C(=O)c2cscn2)CC3)cn1 | -1.71 |
| CC(C)c1nn(C)c(N(C)C)c1CNC1CCN(CC2CC2)CC1 | 0.338 |
| O=C(CNC(=O)c1c(F)cccc1Cl)Nc1ccc(F)cn1 | -12.6 |
| O=C(c1cnns1)N1CCN(Cc2ccc(F)cc2Cl)CC1 | -4.81 |
| COCCOc1ccc(S(=O)(=O)Nc2cccnc2O)cc1C | -4.13 |
| O=C1[C@@H]2CCN(CC3CCOCC3)C[C@@H]2OCCN1c1ccccc1 | 1.16 |
| c1cnnc(N2CCCC2CNc2ncnc3ccsc23)c1 (stereo unspecified) | -1.29 |
| CCNC(=O)N1CCC(NC(=O)NCCc2cc3ccccc3o2)C1 (stereo unspecified) | 11.5 |
| CCS(=O)(=O)c1nnc([C@@H](N)Cc2ccccc2)o1 | 16.2 |
| N#Cc1ccc(OCCNc2cccc(C(=O)N3CCOCC3)c2)cc1 | -13.9 |
| CCn1c(-c2ccccc2)nn(CC(=O)NCCc2c[nH]cn2)c1=O | 28.4 |
| CC(c1nc(C2CC2)no1)N1CCN(CCc2ccncc2)CC1 (stereo unspecified) | -12.6 |
| COC(=O)c1cccn1C1CCN(C(=O)c2cc(F)ccc2F)CC1 | -1.51 |

From ChEMBL document CHEMBL3507680, “University of Dundee, Gates Library screen for HepG2 cell viability”
